Assay results: patent US10292391B2, “Pesticidally active 1,2,4-triazole derivatives with sulphur containing substituents” (Syngenta Participations AG, priority 2015, dated 2019)

What was measured:
Assay type in all cases: in vivo
[1] = tested on: Spodoptera littoralis (Egyptian Cotton Leaf Worm); assay: Activity against Spodoptera littoralis, sprayed cotton leaf discs; details: foliar, 72 h, application rate of 200 ppm, L1 larvae, 3 days after infestation, read-out: control (at least one of mortality, anti-feedant effect, and growth inhibition)
Protocol: Cotton leaf discs were placed on agar in 24-well microtiter plates and sprayed with aqueous test solutions prepared from 10,000 ppm DMSO stock solutions. After drying the leaf discs were infested with five L1 larvae. The samples were assessed for mortality, anti-feedant effect, and growth inhibition in comparison to untreated samples 3 days after infestation. Control of Spodoptera littoralis by a test sample is when at least one of mortality, anti-feedant effect, and growth inhibition is higher than the untreated sample.

[2] = tested on: Diabrotica Balteata (Corn Root Worm); assay: Activity against Diabrotica balteata, sprayed maize sprouts; details: 96 h, application rate of 200 ppm, L2 larvae, 4 days after infestation, read-out: effect in at least one of the two categories (mortality or growth inhibition)
Protocol: Maize sprouts, placed on an agar layer in 24-well microtiter plates were treated with aqueous test solutions prepared from 10,000 ppm DMSO stock solutions by spraying. After drying, the plates were infested with L2 larvae (6 to 10 per well). The samples were assessed for mortality and growth inhibition in comparison to untreated samples 4 days after infestation.

[3] = tested on: Frankliniella occidentalis (Western Flower Thrips); assay: Activity against Frankliniella occidentalis, sprayed sunflower leaf discs; details: foliar, 168 h, application rate of 200 ppm, population of mixed ages, 7 days after infestation
Protocol: Sunflower leaf discs were placed on agar in 24-well microtiter plates and sprayed with aqueous test solutions prepared from 10,000 DMSO stock solutions. After drying the leaf discs were infested with a Frankliniella population of mixed ages. The samples were assessed for mortality 7 days after infestation.

[4] = tested on: Euschistus heros(Neotropical Brown Stink Bug); assay: Activity against Euschistus heros, sprayed soybean leaf; details: 120 h, application rate of 200 ppm, N-2 nymphs, 5 days after infestation, read-out: effect in at least one of the two categories (mortality or growth inhibition)
Protocol: Soybean leaf on agar in 24-well microtiter plates were sprayed with aqueous test solutions prepared from 10,000 ppm DMSO stock solutions. After drying the leaf were infested with N-2 nymphs. The samples were assessed for mortality and growth inhibition in comparison to untreated samples 5 days after infestation.

[5] = tested on: Myzus persicae (Green Peach Aphid); assay: Activity against Myzus persicae, sprayed sunflower leaf discs; details: foliar, 144 h, application rate of 200 ppm, aphid population of mixed ages, 6 days after infestation
Protocol: Sunflower leaf discs were placed on agar in a 24-well microtiter plate and sprayed with aqueous test solutions prepared from 10,000 ppm DMSO stock solutions. After drying, the leaf discs were infested with an aphid population of mixed ages. The samples were assessed for mortality 6 days after infestation.

[6] = tested on: Plutella xylostella (Diamond Back Moth); assay: Activity against Plutella xylostella, treated artificial diet; details: 120 h, application rate of 200 ppm, L2 larvae, 5 days after infestation, read-out: effect in at least one of the two categories (mortality or growth inhibition)
Protocol: 24-well microtiter plates with artificial diet were treated with aqueous test solutions prepared from 10,000 ppm DMSO stock solutions by pipetting. After drying, the plates were infested with L2 larvae (10 to 15 per well). The samples were assessed for mortality and growth inhibition in comparison to untreated samples 5 days after infestation.

[7] = tested on: Spodoptera littoralis (Egyptian Cotton Leaf Worm); assay: Activity against Spodoptera littoralis, systemic via lettuce grown on treated agar; details: 144 h, test rate of 12.5 ppm, root uptake by lettuce, 6 days after infestation, read-out: effect in at least one of the three categories (mortality, anti-feedancy, or growth inhibition)
Description: Test compounds were applied by pipette from 10,000 ppm DMSO stock solutions into 24-well plates and mixed with agar. Lettuce seeds were placed on the agar and the multi well plate was closed by another plate which contains also agar. After 7 days the roots have absorbed the compound and the lettuce has grown into the lid plate. The lettuce leafs were now cut off into the lid plate. Spodoptera eggs were pipetted through a plastic stencil on a humid gel blotting paper and the plate closed with it. The samples were assessed for mortality, anti-feedant effect and growth inhibition in comparison to untreated samples 6 days after infestation.

CCSc1cc(-c2ccc(Cl)cc2)cnc1-c1nnc(-c2cc(C(F)(F)F)ccn2)n1C [Compound P1, 5-(4-chlorophenyl)-3-ethylsulfanyl-2-[4-methyl-5-[4-(trifluoromethyl)-2-pyridyl]-1,2,4-triazol-3-yl]pyridine]
≥ 80%: mortality at 200 ppm [1] | percent effect (mortality or growth inhibition) at 200 ppm [2]

CCS(=O)(=O)c1cc(-c2ccc(Cl)cc2)cnc1-c1nnc(-c2cc(C(F)(F)F)ccn2)n1C [Compound P2, 5-(4-chlorophenyl)-3-ethylsulfonyl-2-[4-methyl-5-[4-(trifluoromethyl)-2-pyridyl]-1,2,4-triazol-3-yl]pyridine]
≥ 80%: mortality at 200 ppm [1] | percent effect (mortality or growth inhibition) at 200 ppm [2]

CCSc1cc(-n2cccn2)cnc1-c1nnc(-c2cc(C(F)(F)F)ccn2)n1C [Compound P3, 3-ethylsulfanyl-2-[4-methyl-5-[4-(trifluoromethyl)-2-pyridyl]-1,2,4-triazol-3-yl]-5-pyrazol-1-yl-pyridine]
≥ 80%: mortality at 200 ppm [3] | percent effect (mortality or growth inhibition) at 200 ppm [4]

CCS(=O)(=O)c1cc(-n2cccn2)cnc1-c1nnc(-c2cc(C(F)(F)F)ccn2)n1C [Compound P4, 3-ethylsulfonyl-2-[4-methyl-5-[4-(trifluoromethyl)-2-pyridyl]-1,2,4-triazol-3-yl]-5-pyrazol-1-yl-pyridine]
≥ 80%: mortality at 200 ppm [1] | mortality at 200 ppm [5] | percent effect (mortality or growth inhibition) at 200 ppm [4]

CCSc1cc(-n2cc(C(F)(F)F)cn2)cnc1-c1nnc(-c2cc(C(F)(F)F)ccn2)n1C [Compound P5]
≥ 80%: percent effect (mortality or growth inhibition) at 200 ppm [2]

CCSc1cc(-c2ncccn2)cnc1-c1nnc(-c2cc(C(F)(F)F)ccn2)n1C [Compound P8]
≥ 80%: percent effect (mortality or growth inhibition) at 200 ppm [6] | percent effect (mortality or growth inhibition) at 200 ppm [2] | mortality at 200 ppm [3]

CCS(=O)(=O)c1cc(-c2ccc(C(F)(F)F)cc2)cnc1-c1nnc(-c2cc(C(F)(F)F)ccn2)n1C [Compound P11]
≥ 80%: mortality at 200 ppm [1] | percent effect (mortality or growth inhibition) at 200 ppm [6] | percent effect (mortality or growth inhibition) at 200 ppm [2] | mortality at 200 ppm [5] | percent effect (mortality or growth inhibition) at 200 ppm [4]

CCS(=O)(=O)c1cc(-n2ccc(C#N)n2)cnc1-c1nnc(-c2cc(C(F)(F)F)ccn2)n1C [Compound P16]
≥ 80%: mortality at 200 ppm [1] | percent control (mortality, anti-feedancy or growth inhibition) at 12.5 ppm [7] | percent effect (mortality or growth inhibition) at 200 ppm [6] | percent effect (mortality or growth inhibition) at 200 ppm [2] | mortality at 200 ppm [5]

CCS(=O)(=O)c1cc(-c2ncc(Cl)cn2)cnc1-c1nnc(-c2cc(C(F)(F)F)ccn2)n1C [Compound P18]
≥ 80%: mortality at 200 ppm [1] | percent effect (mortality or growth inhibition) at 200 ppm [2]

CCS(=O)(=O)c1cc(-c2ncc(C#N)cn2)cnc1-c1nnc(-c2cc(C(F)(F)F)ccn2)n1C [Compound P20]
≥ 80%: mortality at 200 ppm [1] | percent control (mortality, anti-feedancy or growth inhibition) at 12.5 ppm [7] | percent effect (mortality or growth inhibition) at 200 ppm [6] | percent effect (mortality or growth inhibition) at 200 ppm [2] | mortality at 200 ppm [5] | percent effect (mortality or growth inhibition) at 200 ppm [4]

CCS(=O)(=O)c1cc(-c2cccc(C#N)n2)cnc1-c1nnc(-c2cc(C(F)(F)F)ccn2)n1C [Compound P21]
≥ 80%: mortality at 200 ppm [1] | percent control (mortality, anti-feedancy or growth inhibition) at 12.5 ppm [7] | percent effect (mortality or growth inhibition) at 200 ppm [6] | percent effect (mortality or growth inhibition) at 200 ppm [2] | mortality at 200 ppm [5] | mortality at 200 ppm [3] | percent effect (mortality or growth inhibition) at 200 ppm [4]

CCS(=O)(=O)c1cc(-c2cccc(Cl)n2)cnc1-c1nnc(-c2cc(C(F)(F)F)ccn2)n1C [Compound P24, 5-(6-chloro-2-pyridyl)-3-ethylsulfonyl-2-[4-methyl-5-[4-(trifluoromethyl)-2-pyridyl]-1,2,4-triazol-3-yl]pyridine]
≥ 80%: mortality at 200 ppm [1] | percent effect (mortality or growth inhibition) at 200 ppm [6] | percent effect (mortality or growth inhibition) at 200 ppm [2] | percent effect (mortality or growth inhibition) at 200 ppm [4]

CCS(=O)(=O)c1cc(-n2ccc(Cl)n2)cnc1-c1nnc(-c2cc(C(F)(F)F)ccn2)n1C [Compound P28]
≥ 80%: mortality at 200 ppm [1] | percent control (mortality, anti-feedancy or growth inhibition) at 12.5 ppm [7] | percent effect (mortality or growth inhibition) at 200 ppm [6] | percent effect (mortality or growth inhibition) at 200 ppm [2] | mortality at 200 ppm [5] | mortality at 200 ppm [3] | percent effect (mortality or growth inhibition) at 200 ppm [4]

CCS(=O)(=O)c1cc(SC(F)(F)F)cnc1-c1nnc(-c2cc(C(F)(F)F)ccn2)n1C [Compound P34, 3-ethylsulfonyl-2-[4-methyl-5-[4-(trifluoromethyl)-2-pyridyl]-1,2,4-triazol-3-yl]-5-(trifluoromethylsulfanyl)pyridine]
≥ 80%: percent effect (mortality or growth inhibition) at 200 ppm [2] | mortality at 200 ppm [5]

CCS(=O)(=O)c1cc(S(=O)(=O)C(F)(F)F)cnc1-c1nnc(-c2cc(C(F)(F)F)ccn2)n1C [Compound P35, 3-ethylsulfonyl-2-[4-methyl-5-[4-(trifluoromethyl)-2-pyridyl]-1,2,4-triazol-3-yl]-5-(trifluoromethylsulfonyl)pyridine]
≥ 80%: mortality at 200 ppm [1] | percent effect (mortality or growth inhibition) at 200 ppm [6] | percent effect (mortality or growth inhibition) at 200 ppm [2]

CCS(=O)(=O)c1ccc(C2CC2)nc1-c1nnc(-c2cc(C(F)(F)F)ccn2)n1C [Compound P38]
≥ 80%: mortality at 200 ppm [1] | percent effect (mortality or growth inhibition) at 200 ppm [6] | percent effect (mortality or growth inhibition) at 200 ppm [2]

CCS(=O)(=O)c1ccc(-c2cccc(F)c2)nc1-c1nnc(-c2cc(C(F)(F)F)ccn2)n1C [Compound P50, 3-ethylsulfonyl-6-(3-fluorophenyl)-2-[4-methyl-5-[4-(trifluoromethyl)-2-pyridyl]-1,2,4-triazol-3-yl]pyridine]
≥ 80%: mortality at 200 ppm [1] | percent control (mortality, anti-feedancy or growth inhibition) at 12.5 ppm [7] | percent effect (mortality or growth inhibition) at 200 ppm [6] | percent effect (mortality or growth inhibition) at 200 ppm [2] | mortality at 200 ppm [5] | mortality at 200 ppm [3] | percent effect (mortality or growth inhibition) at 200 ppm [4]

CCS(=O)(=O)c1cc(-c2cccc(F)c2)cnc1-c1nnc(-c2cc(C(F)(F)F)ncn2)n1C [Compound P52]
≥ 80%: mortality at 200 ppm [1] | percent control (mortality, anti-feedancy or growth inhibition) at 12.5 ppm [7] | percent effect (mortality or growth inhibition) at 200 ppm [6] | percent effect (mortality or growth inhibition) at 200 ppm [2] | mortality at 200 ppm [5] | mortality at 200 ppm [3] | percent effect (mortality or growth inhibition) at 200 ppm [4]

CCS(=O)(=O)c1cc(-c2cccc(F)c2)cnc1-c1nnc(-c2cc(C(F)(F)F)ccn2)n1C [Compound P53]
≥ 80%: mortality at 200 ppm [1] | percent effect (mortality or growth inhibition) at 200 ppm [6] | percent effect (mortality or growth inhibition) at 200 ppm [2]
